Results taken from patent publication US11524966B1 (Valo Early Discovery, Inc., priority 2017, dated 2022).

Biological target: T1, USP28 (His-tagged USP28-FL-mammalian) (Homo sapiens, UniProt Q96RU2)
T1 construct: Expression of USP28 (1-1077)-TEV-6*His (pTT5 vector); made in house; host or cells: Expi293f cells (pTT5 vector)
T1 sequence (Q96RU2 1-1077): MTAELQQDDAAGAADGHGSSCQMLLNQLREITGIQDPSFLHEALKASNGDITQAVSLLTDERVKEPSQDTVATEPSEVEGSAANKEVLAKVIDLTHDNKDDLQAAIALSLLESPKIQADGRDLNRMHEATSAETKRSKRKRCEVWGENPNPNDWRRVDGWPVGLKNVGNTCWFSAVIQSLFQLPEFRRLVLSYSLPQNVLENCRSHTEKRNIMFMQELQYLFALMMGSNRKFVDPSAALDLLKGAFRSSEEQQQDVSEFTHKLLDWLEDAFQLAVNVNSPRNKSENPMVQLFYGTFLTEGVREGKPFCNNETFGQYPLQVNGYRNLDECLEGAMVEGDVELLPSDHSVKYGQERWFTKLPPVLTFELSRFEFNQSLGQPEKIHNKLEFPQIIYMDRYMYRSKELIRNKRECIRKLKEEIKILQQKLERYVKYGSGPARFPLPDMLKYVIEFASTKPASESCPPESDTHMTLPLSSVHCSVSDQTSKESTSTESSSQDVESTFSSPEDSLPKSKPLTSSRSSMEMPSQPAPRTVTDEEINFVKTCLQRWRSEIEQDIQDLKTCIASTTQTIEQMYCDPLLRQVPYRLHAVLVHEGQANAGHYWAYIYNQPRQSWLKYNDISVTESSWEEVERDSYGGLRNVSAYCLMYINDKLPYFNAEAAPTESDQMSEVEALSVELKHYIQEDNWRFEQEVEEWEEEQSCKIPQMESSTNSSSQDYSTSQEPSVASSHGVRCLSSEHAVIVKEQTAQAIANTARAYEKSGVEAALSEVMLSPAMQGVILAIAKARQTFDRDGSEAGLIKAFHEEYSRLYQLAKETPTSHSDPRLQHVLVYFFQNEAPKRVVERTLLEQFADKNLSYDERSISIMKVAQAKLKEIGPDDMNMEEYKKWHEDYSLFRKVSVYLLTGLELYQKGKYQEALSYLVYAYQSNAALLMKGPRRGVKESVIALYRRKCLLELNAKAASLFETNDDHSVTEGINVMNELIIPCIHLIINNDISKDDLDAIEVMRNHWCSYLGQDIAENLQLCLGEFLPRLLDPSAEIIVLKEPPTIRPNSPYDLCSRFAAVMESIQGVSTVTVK
Assay: Ubiquitin-Rhodamine 110 Assay for USP28 Activity, Example A-1(a)
Assay type: biochemical
Conditions: Ubiquitin-Rhodamine 110 assay, Example A-1(a); read-out: USP28 A-1(a) IC50 range
Summary of the method: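 Full-length His-tagged human USP28 (1-1077, Expi293f-expressed), […], with 25 nM Ub-Rh110 (<<Km) in pH 8.0 Tris buffer with BME, BGG, Triton X-100. 10-point dilutions (25 μM-1.3 nM), 45 min at room temperature, citric acid stop, fluorescence 485/535 nm; IC50 by 4-parameter fit.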

Row | Compound | IC50 [nM]
1 | Cc1nc2sc(C(=O)N[C@H]3COc4c(F)c(N5CCNCC5)cc(F)c4C3)c(N)c2s1 [Example 56, (R)-6-amino-N-(5,8-difluoro-7-(piperazin-1-yl)chroman-3-yl)-2-methylthieno[2,3-d]thiazole-5-carboxamide] | 1 to 50
2 | CO[C@H]1CN(c2ccc3c(c2F)OC[C@H](NC(=O)c2sc4nc(C)ccc4c2N)C3)C[C@@H]1N [Example 92, 3-amino-N-[(3R)-7-[(3S,4S)-3-amino-4-methoxypyrrolidin-1-yl]-8-fluoro-3,4-dihydro-2H-1-benzopyran-3-yl]-6-methylthieno[2,3-b]pyridine-2-carboxamide] | 1 to 50
3 | Cc1cnc2c(N)c(C(=O)N[C@H]3COc4cc(N5CCNCC5)ncc4C3)sc2n1 [Example 71, (R)-7-amino-3-methyl-N-(7-(piperazin-1-yl)-3,4-dihydro-2H-pyrano[3,2-c]pyridin-3-yl)thieno[2,3-b]pyrazine-6-carboxamide] | 50 to 200
4 | Cc1ccc2c(N)c(C(=O)N[C@H]3COc4cc([C@H]5CCNC[C@H]5F)ccc4C3)sc2n1 [Example 82, 3-amino-N-((R)-7-((3S,4R)-3-fluoropiperidin-4-yl)chroman-3-yl)-6-methylthieno[2,3-b]pyridine-2-carboxamide] | 1 to 50
5 | Cc1ccc2c(N)c(C(=O)N[C@H]3CCc4nc(N5CCNCC5)c(F)cc4C3)sc2n1 (single isomer, unassigned) [Example 30-1] | 1 to 50
6 | O=C(N[C@@H]1COc2cc(N3CCNCC3)ccc2C1)c1cnc2c(ccn2C(F)F)c1 [Example 39, (S)-1-(difluoromethyl)-N-(7-(piperazin-1-yl)chroman-3-yl)-1H-pyrrolo[2,3-b]pyridine-5-carboxamide] | > 2000
7 | Cc1cc(C(F)F)c2c(N)c(C(=O)N[C@H]3COc4cc(N5CC6CNCC(C5)O6)ccc4C3)sc2n1 [Example 88, N-((3R)-7-(9-oxa-3,7-diazabicyclo[3.3.1]nonan-3-yl)chroman-3-yl)-3-amino-4-(difluoromethyl)-6-methylthieno[2,3-b]pyridine-2-carboxamide] | 1 to 50
8 | Cc1ccc2c(N)c(C(=O)N[C@H]3COc4cc([C@@H]5CCNC[C@@H]5F)ccc4C3)sc2n1 [Example 83, 3-amino-N-((R)-7-((3R,4S)-3-fluoropiperidin-4-yl)chroman-3-yl)-6-methylthieno[2,3-b]pyridine-2-carboxamide] | 1 to 50
9 | Cc1ccc2c(N)c(C(=O)N[C@H]3CCc4nc(N5CCN[C@H](C)C5)ccc4C3)sc2n1 (single isomer, unassigned) [Example 23-16] | 1 to 50
10 | Cc1ccc2c(N)c(C(=O)N[C@H]3COc4c(F)c(N5CCNCC5)c(F)c(F)c4C3)sc2n1 [Example 35, 3-amino-6-methyl-N-[(3R)-5,6,8-trifluoro-7-(piperazin-1-yl)-3,4-dihydro-2H-1-benzopyran-3-yl]thieno[2,3-b]pyridine-2-carboxamide] | 1 to 50
11 | Cc1nc2sc(C(=O)N[C@@H]3COc4cc(N5CC6CCC(C5)N6)c(F)cc4C3)c(N)c2s1 [Example 46, N-((3S)-7-(3 8-diazabicyclo[3.2.1]octan-3-yl)-6-fluorochroman-3-yl)-6-amino-2-methylthieno[2,3-d]thiazole-5-carboxamide] | 1 to 50
12 | CO[C@@H]1CN(c2cc3c(cc2F)C[C@@H](NC(=O)c2sc4nc(C)ccc4c2N)CO3)C[C@H]1N [Example 93, 3-amino-N-[(3R)-7-[(3R,4R)-3-amino-4-methoxypyrrolidin-1-yl]-6-fluoro-3,4-dihydro-2H-1-benzopyran-3-yl]-6-methylthieno[2,3-b]pyridine-2-carboxamide] | 50 to 200
13 | Cc1ccc2c(N)c(C(=O)N[C@@H]3COc4cc(N5CCNCC5)cc(Cl)c4C3)sc2n1 [Example 49, (S)-3-amino-N-(5-chloro-7-(piperazin-1-yl)chroman-3-yl)-6-methylthieno[2,3-b]pyridine-2-carboxamide] | 200 to 2000
14 | Cc1ccc2c(N)c(C(=O)N[C@H]3COc4c(F)c(N5CC6CNCC(C5)O6)cc(F)c4C3)sc2n1 [Example 78, N-((3R)-7-(9-oxa-3,7-diazabicyclo[3.3.1]nonan-3-yl)-5,8-difluorochroman-3-yl)-3-amino-6-methylthieno[2,3-b]pyridine-2-carboxamide] | 1 to 50
15 | Cc1ccc2c(N)c(C(=O)N[C@@H]3CCc4nc(N5CCNCC5)ccc4C3)sc2n1 (single isomer, unassigned) [Example 23-8] | 50 to 200
16 | C[C@@H]1CCc2cc(C(=O)N[C@H]3COc4cc(N5CC6CCC(C5)N6)ccc4C3)cnc2N1 [Example 74, (7R)-N-((3R)-7-(3,8-diazabicyclo[3.2.1]octan-3-yl)chroman-3-yl)-7-methyl-5,6,7,8-tetrahydro-1,8-naphthyridine-3-carboxamide] | 50 to 200
17 | O=C(N[C@H]1COc2cc(N3CC4CCC(C3)N4)ccc2C1)c1cnc2c(c1)CCCN2 [Example 50, N-((3R)-7-(3,8-diazabicyclo[3.2.1]octan-3-yl)chroman-3-yl)-5,6,7,8-tetrahydro-1,8-naphthyridine-3-carboxamide] | 50 to 200
18 | Cc1ccc2c(N)c(C(=O)N[C@H]3COc4cc([C@H]5CCNC[C@H]5O)ccc4C3)sc2n1 [Example 62, 3-amino-N-((R)-7-((3S,4R)-3-hydroxypiperidin-4-yl)chroman-3-yl)-6-methylthieno[2,3-b]pyridine-2-carboxamide] | 1 to 50
19 | O=C(N[C@H]1COc2cc(N3CCNCC3)ccc2C1)c1cnc2c(c1)CC[C@@H]2O [Example 58, (S)-7-hydroxy-N-((R )-7-(piperazin-1-yl)chroman-3-yl)-6,7-dihydro-5H-cyclopenta[b]pyridine-3-carboxamide] | 200 to 2000
20 | Cc1ccc2c(N)c(C(=O)N[C@H]3COc4cc(N5C[C@H]6CCNC[C@H]65)ccc4C3)sc2n1 (single isomer, unassigned) [Example 33-4] | 1 to 50
21 | CO[C@@H]1CN(c2cc(F)c3c(c2F)OC[C@H](NC(=O)c2sc4nc(C)ccc4c2N)C3)C[C@H]1N [Example 86] | 1 to 50
22 | Cc1ccc2c(N)c(C(=O)N[C@H]3COc4cc([C@H]5CCNC[C@@H]5O)ccc4C3)sc2n1 [Example 64, 3-amino-N-((R)-7-((3R,4R)-3-hydroxypiperidin-4-yl)chroman-3-yl)-6-methylthieno[2,3-b]pyridine-2-carboxamide] | 1 to 50
23 | Cc1nc2sc(C(=O)N[C@H]3COc4cc(N5CC6CCC(C5)N6)c(F)cc4C3)c(N)c2s1 [Example 47, N-((3R)-7-(3,8-diazabicyclo[3.2.1]octan-3-yl)-6-fluorochroman-3-yl)-6-amino-2-methylthieno[2,3-d]thiazole-5-carboxamide] | 200 to 2000
24 | Cc1ccc2c(N)c(C(=O)N[C@H]3CCc4nc(N5CCNCC5)ccc4C3)sc2n1 (single isomer, unassigned) [Example 23-7] | 1 to 50
25 | Cc1ccc2c(N)c(C(=O)N[C@H]3COc4cc([C@@H]5CCNC[C@@H]5O)ccc4C3)sc2n1 [Example 63, 3-amino-N-((R)-7-((3R,4S)-3-hydroxypiperidin-4-yl)chroman-3-yl)-6-methylthieno[2,3-b]pyridine-2-carboxamide] | 1 to 50
26 | Cc1cnc2c(N)c(C(=O)N[C@@H]3COc4cc(N5CC6CCC(C5)N6)c(F)cc4C3)sc2n1 (single isomer, unassigned) [Example 41] | 200 to 2000
27 | C[C@H]1CCc2cc(C(=O)N[C@H]3COc4cc(N5CC6CCC(C5)N6)ccc4C3)cnc2N1 [Example 73, (7S)-N-((3R)-7-(3,8-diazabicyclo[3.2.1]octan-3-yl)chroman-3-yl)-7-methyl-5,6,7,8-tetrahydro-1,8-naphthyridine-3-carboxamide] | > 2000
28 | O=C(N[C@H]1COc2cc(N3CCNCC3)ccc2C1)c1cnc2c(ccn2C(F)F)c1 [Example 38, (R)-1-(difluoromethyl)-N-(7-(piperazin-1-yl)chroman-3-yl)-1H-pyrrolo[2,3-b]pyridine-5-carboxamide] | 200 to 2000
29 | Cc1ccc2c(N)c(C(=O)N[C@H]3CCc4nc(N5CC6CCC(C5)N6)ccc4C3)sc2n1 [Example 23-12, 3-amino-N-[(6S)-2-{3,8-diazabicyclo[3.2.1]octan-3-yl}-5,6,7,8-tetrahydroquinolin-6-yl]-6-methylthieno[2,3-b]pyridine-2-carboxamide] | 1 to 50
